Source: US20160008471A1, “TRANSDERMAL FORMULATIONS” (priority 2013, published 2016)
Structures can show the parent of a compound that is named as a salt. Where two headings read alike, the source gives them in different places.

Assays:
[1] = male, bovine, pH 7.4
[2] = cited from earlier work; for Solubility (Aq): in words; for pKa (acidic): first pKa (acidic) column
[3] = Moxidectin skin deposition study; assay type: in vitro ADME, bovine; details: 72 hours
Method: The amount of moxidectin accumulating in the bovine skin was determined using whole skin thickness (approx. […]) and split skin thickness (approx. […]) after 72 hours. The skin tissue was physically broken down using a Gentle MACS dissociator (Miltenyi Biotec GmbH, Germany) with 5 mL of methanol added into each sample. The dissociator setting was RNA-02.01 with M-type tubes for 90 seconds. Centrifuged samples had the supernatant collected and diluted 2 times with ACN before being analysed by the HPLC method.

[4] = at RT; cited from earlier work
[5] = horse
[6] = rabbit
[7] = Stability of test composition with surfactants (phase separation, crystals); assay type: physicochemical; details: surfactant added to test composition (Table 5); room temperature (24±1° C.)
Method: The purpose of this study was to examine the stability of the formula which may comprise surface active agents such as surfactants. […] Three temperatures (RT, 4.5° C. and −20° C.) were used to monitor for phase separation and/or drug crystal formation every one or two days from 6 days.

[8] = Solubility of actives in individual solvents
Excerpt: The purpose of these studies was to identify solvents and co-solvents to optimise solubility of actives and the physical/chemical stability of product.

For CO/N=C1\C[C@]2(C[C@@H]3C[C@@H](C/C=C(\C)C[C@@H](C)/C=C/C=C4\CO[C@@H]5[C@H](O)C(C)=C[C@@H](C(=O)O3)[C@]45O)O2)O[C@H](/C(C)=C/C(C)C)[C@H]1C [Moxidectin, moxidectin], the “flux rate of moxidectin” value ([1]; 72 h) is listed as 475±185.2 ng/cm^2/hr, the “Solubility (Aq)” value [2] is listed as “Insoluble” and the “proportion of the drug in Donor” value ([3]; 500 μm skin) is listed as 51%. The “proportion of the drug in Receptor” value ([3]; 500 μm skin) was 31%, the “proportion of the drug in Skin” value ([3]; 500 μm skin) was 18% and the “proportion of the drug in Donor” value ([3]; Whole skin) was 65%. For the same compound, the “proportion of the drug in Receptor” value ([3]; Whole skin) was 3% and the “proportion of the drug in Skin” value ([3]; Whole skin) was 32%.
In the case of Tocopherol, the HLB [4] is given as 6.0.
For C[C@]12CCC(=O)C=C1CC[C@@H]1[C@@H]2[C@@H](O)C[C@@]2(C)[C@H]1CC[C@]2(O)C(=O)CO [Hydrocortisone, Hydrocortisone (base)], the “pKa (basic)” value [2] is listed as −2.8 and the “pKa (acidic)” value [2] is listed as 12.6.
For c1ccc([C@H]2CN3CCSC3=N2)cc1 [Lev. Base, levamisole base], the “flux rate of levamisole” value ([1]; 72 h) is listed as 949.6±80.8 μg/cm^2/hr, the logP [2] is listed as 1.8 and the “pKa (acidic)” value [2] is listed as 8. The “Solubility (Aq)” value [2] was “Insoluble” and the pKa ([2]; stated for the basic drug LEV) was 8.
For Span 60, the HLB [4] is listed as 4.7.
In the case of Span 80, the HLB [4] is given as 4.3.
With CCN(CC)CCNC(=O)c1cc(Cl)c(N)cc1OC [Metoclopramide, Metacloprimide HCl] the “lag T” value [5] was 3.11 h, the “Mean (μg/cm2) permeated” value ([5]; 0 h) was 0 μg/cm2 and the “Mean (μg/cm2) permeated” value ([5]; 2 h) was 0 μg/cm2. For the same compound, the “Mean (μg/cm2) permeated” value ([5]; 4 h) was 0 μg/cm2, the “Mean (μg/cm2) permeated” value ([5]; 6 h) was 0 μg/cm2 and the “Mean (μg/cm2) permeated” value ([5]; 8 h) was 68.1 μg/cm2. For the same compound, the “Mean (μg/cm2) permeated” value ([5]; 10 h) was 679 μg/cm2, the “Mean (μg/cm2) permeated” value ([5]; 20 h) was 1372 μg/cm2 and the Flux ([5]; 24 h) was 67.0±24.6 μg/cm^2/hr. The “Mean (μg/cm2) permeated” value ([5]; 24 h) was 1533 μg/cm2, the “Mean (μg/cm2) permeated” value ([5]; 26 h) was 1477 μg/cm2 and the “Mean (μg/cm2) permeated” value ([5]; 28 h) was 1640 μg/cm2. The “Mean (μg/cm2) permeated” value ([5]; 44 h) was 2604 μg/cm2, the “Mean (μg/cm2) permeated” value ([5]; 46 h) was 2784 μg/cm2 and the “Mean (μg/cm2) permeated” value ([5]; 48 h) was 2910 μg/cm2. For the same compound, the “Mean (μg/cm2) permeated” value ([5]; 50 h) was 2930 μg/cm2, the “Mean (μg/cm2) permeated” value ([5]; 52 h) was 3078 μg/cm2 and the “Mean (μg/cm2) permeated” value ([5]; 68 h) was 3350 μg/cm2. For the same compound, the “Mean (μg/cm2) permeated” value ([5]; 70 h) was 3440 μg/cm2, the APC ([5]; 72 h) was 62.7 cm/s × 10^−8 and the “Extent 72 h” value ([5]; 72 h) was 3454 μg/cm^2. For the same compound, the Flux ([5]; 72 h) was 67.0 μg/cm^2/hr, the “Mean (μg/cm2) permeated” value ([5]; 72 h) was 3454 μg/cm2 and the “Mean (μg/cm2) permeated” value ([1]; 0 h) was 0 μg/cm2. The “Mean (μg/cm2) permeated” value ([1]; 2 h) was 16.2 μg/cm2, the “Mean (μg/cm2) permeated” value ([1]; 4 h) was 251 μg/cm2 and the “Mean (μg/cm2) permeated” value ([1]; 6 h) was 456 μg/cm2. The “Mean (μg/cm2) permeated” value ([1]; 8 h) was 960 μg/cm2, the “Mean (μg/cm2) permeated” value ([1]; 20 h) was 2188 μg/cm2 and the “Mean (μg/cm2) permeated” value ([1]; 24 h) was 2252 μg/cm2. The “Mean (μg/cm2) permeated” value ([1]; 26 h) was 2718 μg/cm2, the “Mean (μg/cm2) permeated” value ([1]; 44 h) was 4779 μg/cm2 and the “Mean (μg/cm2) permeated” value ([1]; 48 h) was 5169 μg/cm2. The “Mean (μg/cm2) permeated” value ([1]; 52 h) was 5394 μg/cm2, the Flux ([1]; 58 h) was 109.4±11.8 μg/cm^2/hr and the “Mean (μg/cm2) permeated” value ([1]; 68 h) was 5336 μg/cm2. For the same compound, the “Mean (μg/cm2) permeated” value ([1]; 70 h) was 5613 μg/cm2, the APC ([1]; 72 h) was 97.1 cm/s × 10^−8 and the “Extent 72 h” value ([1]; 72 h) was 5346 μg/cm^2. The Flux ([1]; 72 h) was 109 μg/cm^2/hr, the “Mean (μg/cm2) permeated” value ([1]; 72 h) was 5346 μg/cm2 and the “lag T” value [1] was 1.07 h. For the same compound, the Flux [6] was 38.6±9.2 μg/cm^2/hr, the “lag T” value [6] was 4.84 h and the “Mean (μg/cm2) permeated” value ([6]; 0 h) was 0 μg/cm2. The “Mean (μg/cm2) permeated” value ([6]; 2 h) was 0 μg/cm2, the “Mean (μg/cm2) permeated” value ([6]; 4 h) was 0 μg/cm2 and the “Mean (μg/cm2) permeated” value ([6]; 6 h) was 0 μg/cm2. The “Mean (μg/cm2) permeated” value ([6]; 8 h) was 0 μg/cm2, the “Mean (μg/cm2) permeated” value ([6]; 10 h) was 32.3 μg/cm2 and the “Mean (μg/cm2) permeated” value ([6]; 20 h) was 685 μg/cm2. The “Mean (μg/cm2) permeated” value ([6]; 24 h) was 772 μg/cm2, the “Mean (μg/cm2) permeated” value ([6]; 26 h) was 831 μg/cm2 and the “Mean (μg/cm2) permeated” value ([6]; 28 h) was 925 μg/cm2. For the same compound, the “Mean (μg/cm2) permeated” value ([6]; 44 h) was 1537 μg/cm2, the “Mean (μg/cm2) permeated” value ([6]; 46 h) was 1612 μg/cm2 and the “Mean (μg/cm2) permeated” value ([6]; 48 h) was 1567 μg/cm2. The “Mean (μg/cm2) permeated” value ([6]; 50 h) was 1782 μg/cm2, the “Mean (μg/cm2) permeated” value ([6]; 52 h) was 1968 μg/cm2 and the “Mean (μg/cm2) permeated” value ([6]; 68 h) was 2391 μg/cm2. For the same compound, the “Mean (μg/cm2) permeated” value ([6]; 70 h) was 2387 μg/cm2, the APC ([6]; 72 h) was 45.7 cm/s × 10^−8 and the “Extent 72 h” value ([6]; 72 h) was 2515 μg/cm^2. The Flux ([6]; 72 h) was 38.6 μg/cm^2/hr and the “Mean (μg/cm2) permeated” value ([6]; 72 h) was 2515 μg/cm2.
With CCCCCCCC/C=C\CCCCCCCC(=O)OCCOCC(OCCO)C1OCC(OCCO)C1OCCO (stereo not shown) [Tween 80] the “Stability of test composition, RT” value [7] was “S”.
In the case of abamectin, the “Maximum Solubility % w/w” value ([8]; in AGNIQUE AMD 10) is reported as “At least 1 % w/w”, the “Maximum Solubility % w/w” value ([8]; in AGNIQUE AMD 810) is reported as “At least 1 % w/w” and the “Maximum Solubility % w/w” value ([8]; in Cremophor) is reported as “At least 1 % w/w”. For the same compound, the “Maximum Solubility % w/w” value ([8]; in DMSO) was “At least 1 % w/w”, the “Maximum Solubility % w/w” value ([8]; in Dipropylenglycol dimethylether) was “At least 1 % w/w” and the “Maximum Solubility % w/w” value ([8]; in Ecoteric T80) was “At least 1 % w/w”. The “Maximum Solubility % w/w” value ([8]; in Glycerol Formal) was 19 % w/w, the “Maximum Solubility % w/w” value ([8]; in Isopropyl Mirystate) was “At least 1 % w/w” and the “Maximum Solubility % w/w” value ([8]; in Isopropyleneglycol) was 7 % w/w. For the same compound, the “Maximum Solubility % w/w” value ([8]; in Isosorbide) was “At least 1 % w/w”, the “Maximum Solubility % w/w” value ([8]; in PEG400) was “At least 1 % w/w” and the “Maximum Solubility % w/w” value ([8]; in Polysorbate 20) was “At least 1 % w/w”. For the same compound, the “Maximum Solubility % w/w” value ([8]; in Span 80) was “At least 1 % w/w”, the “Maximum Solubility % w/w” value ([8]; in Tetraglycol) was 8 % w/w and the “Maximum Solubility % w/w” value ([8]; in Triacetin) was 3 % w/w. The “Maximum Solubility % w/w” value ([8]; in Tripropylene glycol methylether (TPGME)) was 8 % w/w, the logP [2] was 4.4 and the “Solubility (Aq)” value [2] was “Insoluble”.
For CCCCCCCC/C=C\CCCCCCCCOCCOCCO [Brij 93, polyoxyethylene (2) oleyl ether], the HLB [4] is listed as 4.5 ± 0.4.
